Test results as given in patent publication US10934285B2, “Compounds and compositions for inhibiting the activity of SHP2” (Novartis AG, priority 2016, dated 2021).

Target: SHP2 (Homo sapiens (Human), UniProt Q06124)
Assay: SHP2 Allosteric Inhibition Assay
Format: biochemical
Conditions: 0.5 nM SHP2 activated with 0.5 μM peptide IRS1_pY1172(dPEG8)pY1222; surrogate substrate DiFMUP; prompt fluorescence
Text: SHP2 Allosteric Inhibition Assay
SHP2 is allosterically activated through binding of bis-tyrosyl-phorphorylated peptides to its Src Homology 2 (SH2) domains. The latter activation step leads to the release of the auto-inhibitory interface of SHP2, which in turn renders the SHP2 protein tyrosine phosphatase (PTP) active and available for substrate recognition and reaction catalysis. The catalytic activity of SHP2 was monitored using the surrogate substrate DiFMUP in a prompt fluorescence assay format.
After 30-60 minutes incubation at 25° C., the surrogate substrate DiFMUP (Invitrogen, cat #D6567) was added to the reaction and incubated at 25° C. for 30 minutes. […] The inhibitor dose response curves were analyzed using normalized IC50 regression curve fitting with control based normalization.

IC50 [nM] | SMILES
72 | CC1(N)CCN(c2cnc(Sc3cccc(NC(=O)c4c(O)c5ccccc5[nH]c4=O)c3Cl)c(N)n2)CC1 [Example 58, N-(3-((3-Amino-5-(4-amino-4-methylpiperidin-1-yl)pyrazin-2-yl)thio)-2-chlorophenyl)-4-hydroxy-2-oxo-1,2-dihydroquinoline-3-carboxamide]
70 | CC1(N)CCN(c2nc3ccc(Sc4cccc(NC(=O)C5=C(O)CN(c6ccccc6)C5=O)c4)nc3[nH]2)CC1 [Example 46, N-(3-((2-(4-Amino-4-methylpiperidin-1-yl)-3H-imidazo[4,5-b]pyridin-5-yl)thio)phenyl)-4-hydroxy-2-oxo-1-phenyl-2,5-dihydro-1H-pyrrole-3-carboxamide]
16 | C[C@@H]1CC2(CCN(c3cnc(Sc4cccc(NC(=O)c5c(O)nc6n(c5=O)CCCC6)c4Cl)c(N)n3)CC2)[C@H](N)[C@H]1F [Example 30, N-(3-((3-amino-5-((1S,2S,3R)-1-amino-2-fluoro-3-methyl-8-azaspiro[4.5]decan-8-yl)pyrazin-2-yl)thio)-2-chlorophenyl)-2-hydroxy-4-oxo-6,7,8,9-tetrahydro-4H-pyrido[1,2-a]pyrimidine-3-carboxamide]
5000 | Nc1nc(N2CCC(N)(C(F)(F)F)CC2)cnc1Sc1cccc(NC(=O)c2c(O)nc3n(c2=O)CCCC3)c1Cl [Example 20, N-(3-((3-amino-5-(4-amino-4-(trifluoromethyl)piperidin-1-yl)pyrazin-2-yl)thio)-2-chlorophenyl)-2-hydroxy-4-oxo-6,7,8,9-tetrahydro-4H-pyrido[1,2-a]pyrimidine-3-carboxamide]
18 | Nc1nc(N2CCC3(CC2)COC[C@H]3N)cnc1Sc1cccc(NC(=O)c2c(O)nc3n(c2=O)CCCC3)c1Cl [Example 26, (S)—N-(3-((3-Amino-5-(4-amino-2-oxa-8-azaspiro[4.5]decan-8-yl)pyrazin-2-yl)thio)-2-chlorophenyl)-2-hydroxy-4-oxo-6,7,8,9-tetrahydro-4H-pyrido[1,2-a]pyrimidine-3-carboxamide]
6 | NCC1(O)CCN(c2cnc(Sc3cccc(NC(=O)c4c(O)nc5ccccn5c4=O)c3Cl)c(N)n2)CC1 [Example 10, N-(3-((3-amino-5-(4-(aminomethyl)-4-hydroxypiperidin-1-yl)pyrazin-2-yl)thio)-2-chlorophenyl)-2-hydroxy-4-oxo-4H-pyrido[1,2-a]pyrimidine-3-carboxamide]
44 | Cn1c(=O)c(C(=O)Nc2cccc(Sc3ncc(N4CCC(C)(CN)CC4)nc3N)c2Cl)c(O)c2ccccc21 [Example 8, N-(3-((3-amino-5-(4-(aminomethyl)-4-methylpiperidin-1-yl)pyrazin-2-yl)thio)-2-chlorophenyl)-4-hydroxy-1-methyl-2-oxo-1,2-dihydroquinoline-3-carboxamide]
12 | CC[C@@H]1OCC2(CCN(c3cnc(Sc4cccc(NC(=O)c5c(O)nc6n(c5=O)CCCC6)c4Cl)c(N)n3)CC2)[C@@H]1N [Example 29, N-(3-((3-amino-5-((3S,4S)-4-amino-3-ethyl-2-oxa-8-azaspiro[4.5]decan-8-yl)pyrazin-2-yl)thio)-2-chlorophenyl)-2-hydroxy-4-oxo-6,7,8,9-tetrahydro-4H-pyrido[1,2-a]pyrimidine-3-carboxamide]
36 | O=C(Nc1cccc(Sc2ccc3nc(N4CCCCC4)[nH]c3n2)c1Cl)c1c(O)c2nccnc2[nH]c1=O [Example 49, N-(2-chloro-3-((2-(piperidin-1-yl)-3H-imidazo[4,5-b]pyridin-5-yl)thio)phenyl)-8-hydroxy-6-oxo-5,6-dihydropyrido[2,3-b]pyrazine-7-carboxamide]
1.5 | Nc1nc(N2CCC3(CCC[C@H]3N)CC2)nnc1Sc1cccc(NC(=O)c2c(O)nc3n(c2=O)CCCC3)c1Cl [Example 43, (R)-N-(3-((5-amino-3-(1-amino-8-azaspiro[4.5]decan-8-yl)-1,2,4-triazin-6-yl)thio)-2-chlorophenyl)-2-hydroxy-4-oxo-6,7,8,9-tetrahydro-4H-pyrido[1,2-a]pyrimidine-3-carboxamide]
42 | Nc1nc(N2CCC3(CC2)CC(F)(F)C[C@H]3N)cnc1Sc1cccc(NC(=O)c2c(O)nc3n(c2=O)CCCC3)c1Cl [Example 28, (R)-N-(3-((3-amino-5-(1-amino-3,3-difluoro-8-azaspiro[4.5]decan-8-yl)pyrazin-2-yl)thio)-2-chlorophenyl)-2-hydroxy-4-oxo-6,7,8,9-tetrahydro-4H-pyrido[1,2-a]pyrimidine-3-carboxamide]
3 | CC1(N)CCN(c2nc3ccc(Sc4cccc(NC(=O)C5=C(O)CN(c6ccccc6)C5=O)c4Cl)nc3[nH]2)CC1 [Example 47, N-(3-((2-(4-amino-4-methylpiperidin-1-yl)-3H-imidazo[4,5-b]pyridin-5-yl)thio)-2-chlorophenyl)-4-hydroxy-2-oxo-1-phenyl-2,5-dihydro-1H-pyrrole-3-carboxamide]
2.8 | CCC1C(O)=C(C(=O)Nc2cccc(Sc3ncc(N4CCC(C)(N)CC4)nc3N)c2Cl)C(=O)N1C (centres unmarked) [Example 55, N-(3-((3-amino-5-(4-amino-4-methylpiperidin-1-yl)pyrazin-2-yl)thio)-2-chlorophenyl)-5-ethyl-4-hydroxy-1-methyl-2-oxo-2,5-dihydro-1H-pyrrole-3-carboxamide]

SMILES | IC50 [nM]
CC1(N)CCN(c2cnc(Sc3cccc(NC(=O)c4c(O)nc5ccccn5c4=O)c3Cl)c(N)n2)CC1 [Example 1, N-(3-((3-Amino-5-(4-amino-4-methylpiperidin-1-yl)pyrazin-2-yl)thio)-2-chlorophenyl)-2-hydroxy-4-oxo-4H-pyrido[1,2-a]pyrimidine-3-carboxamide] | 6
